A short description of series [1]: Growth inhibition of mouse J774 cells at 128 uM after 24 hrs by resazurin reduction assay. The format is cell-based. Conditions: read-out: GI. (In general: Resazurin is reduced to fluorescent resorufin, in cell work by metabolically active cells.)
For series [2], the system named is Trypanosoma cruzi. The series is described as follows: Growth inhibition of epimastigote form of Trypanosoma cruzi CL-B5 at 128 uM after 72 hrs by lacZ reporter gene assay. In kind it is functional. Conditions: CL-B5, 72 h, read-out: GI. Background: In a reporter assay the amount or activity of a reporter protein is the signal.
The nature of series [3]: Growth inhibition of mouse J774 cells at 64 uM after 24 hrs by resazurin reduction assay. The format is cell-based. Conditions: read-out: GI.
Series [4] in a line: Growth inhibition of mouse J774 cells at 256 uM after 24 hrs by resazurin reduction assay. In kind it is cell-based. Conditions: read-out: GI.
The subject of series [5] is Trypanosoma cruzi. The series is described as follows: Growth inhibition of epimastigote form of Trypanosoma cruzi CL-B5 at 256 uM after 72 hrs by lacZ reporter gene assay. In kind it is functional. Particulars: CL-B5, 72 h, read-out: GI.
The test system of series [6] is Trypanosoma cruzi. The series is described as follows: Growth inhibition of epimastigote form of Trypanosoma cruzi CL-B5 at 64 uM after 72 hrs by lacZ reporter gene assay. In kind it is functional. Particulars: CL-B5, 72 h, read-out: GI.

This note sets out measurements from ChEMBL document CHEMBL2150935, “Synthesis, biological evaluation and chemometric analysis of indazole derivatives. 1,2-Disubstituted 5-nitroindazolinones, new prototypes of antichagasic drug” (Eur J Med Chem, 2012).

On to `CC(C)Oc1c2cc([N+](=O)[O-])ccc2nn1C`, for which, in series [1], the inhibition at 24 h, 128 µM amounted to 19.2%. The inhibition of growth at 128 µM in the series on Trypanosoma cruzi [2] stood at 70.5%. Further, the inhibition at 24 h, 64 µM in series [3] worked out at 6.34%. In addition, the inhibition at 24 h, 256 µM in series [4] was found to be 20%. Besides, the inhibition of growth at 256 µM in the series on Trypanosoma cruzi [5] is 71.9%. Further, in the series with Trypanosoma cruzi [6], the inhibition of growth at 64 µM is 71.5%.
For the molecule `Cn1c2ccc([N+](=O)[O-])cc2c(=O)n1Cc1ccc2ccccc2c1`, in series [1], the inhibition at 24 h, 128 µM came out at 0%. Moreover, the inhibition of growth at 128 µM with Trypanosoma cruzi [2] is 40.9%. Further, the inhibition at 24 h, 64 µM in series [3] stood at 0%. Besides, the inhibition at 24 h, 256 µM in series [4] is 0%. Also, the inhibition of growth at 256 µM in the series on Trypanosoma cruzi [5] amounted to 37.7%. Moreover, the inhibition of growth at 64 µM in the series on Trypanosoma cruzi [6] is 42.5%.
Regarding `Cn1nc2ccc([N+](=O)[O-])cc2c1OCc1ccccc1`, in series [1], the inhibition at 24 h, 128 µM turned out to be 1.39%. Moreover, the inhibition of growth at 128 µM in the series on Trypanosoma cruzi [2] was 56.1%. In series [3], the inhibition at 24 h, 64 µM is 21.5%. For the same molecule, the inhibition at 24 h, 256 µM in series [4] was 0%. Moreover, in the series with Trypanosoma cruzi [5], the inhibition of growth at 256 µM came to 65.5%. Further, the inhibition of growth at 64 µM in the series on Trypanosoma cruzi [6] was determined as 36.7%.
Regarding `COc1c2cc([N+](=O)[O-])ccc2nn1Cc1ccccc1`, the inhibition at 24 h, 128 µM in series [1] was found to be 0%. Moreover, in the series with Trypanosoma cruzi [2], the inhibition of growth at 128 µM amounted to 38.1%. In addition, the inhibition at 24 h, 64 µM in series [3] turned out to be 0%. Besides, the inhibition at 24 h, 256 µM in series [4] worked out at 6.83%. For the same molecule, the inhibition of growth at 256 µM in the series with Trypanosoma cruzi [5] was determined as 21.2%. Besides, the inhibition of growth at 64 µM in the series with Trypanosoma cruzi [6] was 48.3%.
`CCCCCn1c2ccc([N+](=O)[O-])cc2c(=O)n1Cc1ccccc1`: the inhibition at 24 h, 128 µM in series [1] amounted to 71.8%. The inhibition of growth at 128 µM with Trypanosoma cruzi [2] worked out at 90%. The inhibition at 24 h, 64 µM in series [3] came out at 54.1%. Further, in series [4], the inhibition at 24 h, 256 µM is 81%. Moreover, the inhibition of growth at 256 µM in the series with Trypanosoma cruzi [5] was 90.2%. Also, the inhibition of growth at 64 µM in the series on Trypanosoma cruzi [6] amounted to 85.2%.
With `CCCOc1c2cc([N+](=O)[O-])ccc2nn1C`, in series [1], the inhibition at 24 h, 128 µM was 35.3%. Besides, the inhibition of growth at 128 µM in the series on Trypanosoma cruzi [2] is 16.9%. In addition, the inhibition at 24 h, 64 µM in series [3] was 0%. Also, in series [4], the inhibition at 24 h, 256 µM was 62.4%. For the same molecule, the inhibition of growth at 256 µM with Trypanosoma cruzi [5] was found to be 91.2%. Besides, the inhibition of growth at 64 µM in the series on Trypanosoma cruzi [6] worked out at 27.4%.
In the case of `COc1nn(-c2ccccc2)c2ccc([N+](=O)[O-])cc12`, the inhibition of growth at 128 µM in the series with Trypanosoma cruzi [2] came out at 40.3%. Besides, the inhibition at 24 h, 256 µM in series [4] worked out at 27.1%. Also, the inhibition of growth at 256 µM with Trypanosoma cruzi [5] came out at 56.3%. In addition, the inhibition of growth at 64 µM in the series on Trypanosoma cruzi [6] amounted to 21.4%.
Turning to `CCCOc1c2cc([N+](=O)[O-])ccc2nn1Cc1ccc2ccccc2c1`, the inhibition at 24 h, 128 µM in series [1] was 28.5%. The inhibition of growth at 128 µM in the series on Trypanosoma cruzi [2] stood at 16.4%. In addition, in series [3], the inhibition at 24 h, 64 µM was found to be 22.4%. Moreover, in series [4], the inhibition at 24 h, 256 µM was determined as 0%. For the same molecule, the inhibition of growth at 256 µM in the series on Trypanosoma cruzi [5] was found to be 22.5%. The inhibition of growth at 64 µM with Trypanosoma cruzi [6] amounted to 61.2%.
For the molecule `Cn1nc(OCCc2ccccc2)c2cc([N+](=O)[O-])ccc21`, the inhibition at 24 h, 128 µM in series [1] came to 2.99%. The inhibition of growth at 128 µM in the series with Trypanosoma cruzi [2] is 40.6%. The inhibition at 24 h, 64 µM in series [3] is 0%. The inhibition at 24 h, 256 µM in series [4] is 0%. Moreover, the inhibition of growth at 256 µM in the series with Trypanosoma cruzi [5] was 49.4%. In addition, the inhibition of growth at 64 µM with Trypanosoma cruzi [6] turned out to be 67%.
For the molecule `O=c1c2cc([N+](=O)[O-])ccc2n(Cc2ccccc2)n1Cc1ccccc1`, the inhibition at 24 h, 128 µM in series [1] was determined as 64%. In addition, the inhibition of growth at 128 µM in the series with Trypanosoma cruzi [2] was 83.7%. The inhibition at 24 h, 64 µM in series [3] stood at 9.77%. Besides, the inhibition at 24 h, 256 µM in series [4] was determined as 57.9%. In addition, in the series on Trypanosoma cruzi [5], the inhibition of growth at 256 µM stood at 69.2%. In addition, the inhibition of growth at 64 µM in the series on Trypanosoma cruzi [6] stood at 74.5%.
Turning to `CC(C)Oc1c2cc([N+](=O)[O-])ccc2nn1Cc1ccc2ccccc2c1`, in the series with Trypanosoma cruzi [2], the inhibition of growth at 128 µM came to 76.6%. Further, the inhibition at 24 h, 64 µM in series [3] was found to be 26.5%. Further, the inhibition of growth at 256 µM with Trypanosoma cruzi [5] was found to be 63.7%. Further, the inhibition of growth at 64 µM in the series on Trypanosoma cruzi [6] came to 76.5%.
Regarding `CC(C)Oc1c2cc([N+](=O)[O-])ccc2nn1Cc1ccccc1`, in the series on Trypanosoma cruzi [2], the inhibition of growth at 128 µM is 67.1%. For the same molecule, the inhibition at 24 h, 256 µM in series [4] came to 41.4%. Moreover, the inhibition of growth at 256 µM in the series on Trypanosoma cruzi [5] came to 70.8%. Moreover, the inhibition of growth at 64 µM in the series on Trypanosoma cruzi [6] was 56.2%.
In the case of `Cn1c2ccc([N+](=O)[O-])cc2c(=O)n1-c1ccccc1`, in series [1], the inhibition at 24 h, 128 µM came to 9.95%. In the series with Trypanosoma cruzi [2], the inhibition of growth at 128 µM turned out to be 84.3%. Further, the inhibition at 24 h, 64 µM in series [3] is 0%. In addition, the inhibition at 24 h, 256 µM in series [4] was determined as 20.7%. Also, the inhibition of growth at 256 µM in the series on Trypanosoma cruzi [5] is 89.1%. The inhibition of growth at 64 µM in the series on Trypanosoma cruzi [6] was found to be 81.8%.
Turning to `COc1c2cc([N+](=O)[O-])ccc2nn1Cc1ccc2ccccc2c1`, the inhibition of growth at 128 µM with Trypanosoma cruzi [2] is 35.6%. For the same molecule, the inhibition at 24 h, 256 µM in series [4] is 9.31%. For the same molecule, the inhibition of growth at 256 µM with Trypanosoma cruzi [5] was 72.5%. Besides, the inhibition of growth at 64 µM in the series on Trypanosoma cruzi [6] stood at 27%.
For `Cn1c2ccc([N+](=O)[O-])cc2c(=O)n1CCc1ccccc1`, the inhibition at 24 h, 128 µM in series [1] was 0%. The inhibition of growth at 128 µM with Trypanosoma cruzi [2] was 29.1%. Moreover, the inhibition at 24 h, 64 µM in series [3] turned out to be 0%. In addition, the inhibition at 24 h, 256 µM in series [4] was 0%. For the same molecule, in the series with Trypanosoma cruzi [5], the inhibition of growth at 256 µM was 23.4%. Moreover, the inhibition of growth at 64 µM in the series on Trypanosoma cruzi [6] was 49.6%.
As to `COc1c2cc([N+](=O)[O-])ccc2nn1C`, the inhibition at 24 h, 128 µM in series [1] came to 6.57%. For the same molecule, in the series on Trypanosoma cruzi [2], the inhibition of growth at 128 µM amounted to 79.2%. The inhibition at 24 h, 64 µM in series [3] amounted to 0%. Further, the inhibition at 24 h, 256 µM in series [4] came out at 21.6%. Also, the inhibition of growth at 256 µM in the series on Trypanosoma cruzi [5] is 78.7%. The inhibition of growth at 64 µM in the series on Trypanosoma cruzi [6] was determined as 67.8%.
